Measurements reported in US20090264477A1, “BETA ADRENERGIC RECEPTOR AGONISTS FOR TREATMENT OF PAIN AND/OR INFLAMMATION” (Warsaw Orthopedic, Inc., An Indiana Corporation, priority 2008, published 2009).

Columns and labels:
[1] = system: rat Chronic Constriction Injury model (Bennett Model); assay: Hargreaves test (thermal paw withdrawal latency, thermal hyperalgesia) in rat Chronic Constriction Injury model; format: in vivo, Wistar rats
Text: The inventors evaluated the efficacy of a various beta-2-adrenergic receptor agonists and compared them to clonidine (an alpha-2-agonist) and saline in the rat Chronic Constriction Injury model (i.e., Bennett Model) using Wistar rats. The purpose: To determine whether the beta-2-adrenergic receptor agonists can improve pain associated behavioral responses in a rat model of neuropathic pain.
The doses given would mimic those achievable by a continuous release drug depot containing a biodegradable polymer (7 rats in each group).

[2] = system: rat Chronic Constriction Injury model (Bennett Model); assay: von Frey test (mechanical threshold, mechanical allodynia) in rat Chronic Constriction Injury model; format: in vivo, Wistar rats
Method: The inventors evaluated the efficacy of a various beta-2-adrenergic receptor agonists and compared them to clonidine (an alpha-2-agonist) and saline in the rat Chronic Constriction Injury model (i.e., Bennett Model) using Wistar rats.
Hargreaves tests were conducted on days 7 and 14; […], where some drug compositions having predominantly beta-2 agonist activity were compared to clonidine a drug composition that has predominantly alpha-2 agonist activity and saline. The doses given would mimic those achievable by a continuous release drug depot containing a biodegradable polymer (7 rats in each group). […]
FIG. 4 is a graphic representation of the mechanical threshold as a percentage from baseline in rats given clonidine 0.02 mg/kg, ritodrine 5 mg/kg, ritodrine 2 mg/kg, salbutamol 10 mg/kg, salbutamol 5 mg/kg, terbutaline 0.5 mg/kg, terbutaline 0.1 mg/kg, and saline subcutaneously every day for 15 days. […]

[3] = 5 mg/kg subcutaneous every day for 15 days, day 14

For `Clc1cccc(Cl)c1N=C1NCCN1` [clonidine, 2,6-dichloro-N-2-imidazolidinyldenebenzenamine], the “pain behavioral response for thermal hyperalgesia (thermal paw withdrawal latency, percentage of baseline) compared with saline group” value ([1]; 0.02 mg/kg subcutaneous every day for 15 days, day 14) was “statistically significant result of decreasing pain responses”.

For `CC(NCCc1ccc(O)cc1)C(O)c1ccc(O)cc1` (centres unmarked) [ritodrine], the “pain behavioral response for mechanical allodynia (mechanical threshold, percentage of baseline) compared with saline group” value [2, 3] was “statistically significant result of decreasing pain responses”, the “pain behavioral response for thermal hyperalgesia (thermal paw withdrawal latency, percentage of baseline) compared with saline group” value ([1]; 2 mg/kg subcutaneous every day for 15 days, day 7) was “statistically significant result of decreasing pain responses” and the “pain behavioral response for thermal hyperalgesia (thermal paw withdrawal latency, percentage of baseline) compared with saline group” value [1, 3] was “statistically significant result of decreasing pain responses”.

With `CC(C)(C)NCC(O)c1ccc(O)c(CO)c1` (centres unmarked) [salbutamol] the “pain behavioral response for mechanical allodynia (mechanical threshold, percentage of baseline) compared with saline group” value [2, 3] was “statistically significant result of decreasing pain responses”, the “pain behavioral response for mechanical allodynia (mechanical threshold, percentage of baseline) compared with saline group” value ([2]; 10 mg/kg subcutaneous every day for 15 days, days 8 and 15) was “statistically significant result of decreasing pain responses” and the “pain behavioral response for thermal hyperalgesia (thermal paw withdrawal latency, percentage of baseline) compared with saline group” value ([1]; 5 mg/kg subcutaneous every day for 15 days, days 7 and 14) was “statistically significant result of decreasing pain responses”. For the same molecule, the “pain behavioral response for thermal hyperalgesia (thermal paw withdrawal latency, percentage of baseline) compared with saline group” value ([1]; 10 mg/kg subcutaneous every day for 15 days, days 7 and 14) was “statistically significant result of decreasing pain responses”.

For `CC(C)(C)NCC(O)c1cc(O)cc(O)c1` (centres unmarked) [terbutaline], the “pain behavioral response for mechanical allodynia (mechanical threshold, percentage of baseline) compared with saline group” value ([2]; 0.5 mg/kg subcutaneous every day for 15 days, day 14) was “statistically significant result of decreasing pain responses”, the “pain behavioral response for thermal hyperalgesia (thermal paw withdrawal latency, percentage of baseline) compared with saline group” value ([1]; 0.1 mg/kg subcutaneous every day for 15 days, days 7 and 14) was “statistically significant result of decreasing pain responses” and the “pain behavioral response for thermal hyperalgesia (thermal paw withdrawal latency, percentage of baseline) compared with saline group” value ([1]; 0.5 mg/kg subcutaneous every day for 15 days, days 7 and 14) was “statistically significant result of decreasing pain responses”.
